Reference: article PMC8597786 (Antimicrobial Agents and Chemotherapy, 2021)
pEC50: −log10 of the molar value. Like-named read-outs stand apart in the source and are kept apart here.

Tests used:
Experiment in all cases: microbe, parasite or virus in culture
[1] = test system: SARS-CoV-2 (USA-WA1/2020 variant); format: cell-based
[2] = test system: SARS-CoV-2 variant B.1.351; format: cell-based, SARS-CoV-2 B.1.351; settings: Severe acute respiratory syndrome coronavirus 2, Vero C1008, 168 h, read-out: EC50: viability restoration in infected cells for B.1.351
[3] = test system: SARS-CoV-2 variant B.1.1.7; format: cell-based, SARS-CoV-2 B.1.1.7
[4] = test system: SARS-CoV-2 variant B.1.351; format: cell-based, SARS-CoV-2 B.1.351
[5] = test system: SARS-CoV-2 (USA-WA1/2020 variant); format: cell-based; settings: for pEC50: Severe acute respiratory syndrome coronavirus 2, Vero C1008, 48 h, read-out: EC50: yield reduction assay for WA1/2020
[6] = test system: SARS-CoV-2 variant B.1.1.7; settings: for pEC50: Severe acute respiratory syndrome coronavirus 2, Vero C1008, 168 h, read-out: EC50: viability restoration in infected cells for B.1.1.7
[7] = test system: SARS-CoV-2 (USA-WA1/2020 variant); format: cell-based; settings: Severe acute respiratory syndrome coronavirus 2, Vero C1008, 96 h; 4 days; read-out: EC50: viability restoration in infected cells for WA1/2020
[8] = test system: SARS-CoV-2 variant B.1.1.7; format: cell-based, SARS-CoV-2 B.1.1.7; settings: Severe acute respiratory syndrome coronavirus 2, Vero C1008, 96 h; 4 days; read-out: EC50 for CPE scoring-based assay for B.1.1.7
[9] = test system: SARS-CoV-2 variant B.1.351; format: cell-based, SARS-CoV-2 B.1.351; settings: for pEC50: Severe acute respiratory syndrome coronavirus 2, Vero C1008, 96 h, 4 days, read-out: EC50 for CPE scoring-based assay for B.1.351
[10] = Severe acute respiratory syndrome coronavirus 2, Vero C1008, 96 h, 4 days, read-out: EC50 for CPE scoring-based assay for WA1/2020
[11] = Severe acute respiratory syndrome coronavirus 2, Vero C1008, read-out: EC50s, range over cytopathic effect and yield reduction assays

CC(C)C[C@H](NC(=O)OCc1ccccc1)C(=O)N[C@@H](CC1CCNC1=O)C(O)S(=O)(=O)O (stereo partly drawn) [GC-376, reference compound]
pEC50 ([1]; 4 days, read-out: EC50 for CPE scoring-based assay for WA1/2020): 5.41

Oc1ccc([C@@H]2c3c(O)cc(O)cc3[C@@H]3c4c(cc(O)cc4[C@H]2[C@@H]2c4cc(O)cc5c4[C@@H](c4cc(O)cc(O)c4[C@H]2c2ccc(O)cc2)[C@H](c2ccc(O)cc2)O5)O[C@H]3c2ccc(O)cc2)cc1 [Hopeaphenol, (–)-hopeaphenol]
pEC50 [2]: 5.12 | % infected, Average ([3]; 3 μM): 12.1% | % infected, Average ([3]; 10 μM): 10.4% | % infected, Average ([3]; 20 μM): 6.7% | % infected, Average ([3]; 50 μM): 0.0% | pEC50 ([3]; Severe acute respiratory syndrome coronavirus 2, Vero C1008, 48 h, read-out: EC50: yield reduction assay for B.1.1.7): 4.94 | % infected, Average ([4]; 3 μM): 20.6% | % infected, Average ([4]; 10 μM): 11.6% | % infected, Average ([4]; 20 μM): 9.9% | % infected, Average ([4]; 50 μM): 0.1% | pEC50 ([4]; Severe acute respiratory syndrome coronavirus 2, Vero C1008, 48 h, read-out: EC50: yield reduction assay for B.1.351): 5.06 | % infected, Average ([5]; 1 μM): 29.2% | % infected, Average ([5]; 3 μM): 23.0% | % infected, Average ([5]; 10 μM): 18.7% | % infected, Average ([5]; 30 μM): 11.5% | % infected, Average ([5]; 50 μM): 3.6% | pEC50 [5]: 4.87 | pEC50 [1, 10]: 4.99 | pEC50 [1, 11]: 4.63 to 4.99 | pEC50 ([1]; Severe acute respiratory syndrome coronavirus 2, read-out: EC50s in infectious viral assays, range): 4.63 to 5.64 | pEC50 [6]: 5.11 | pEC50 [7]: 4.63 | pEC50 [8]: 4.83 | Fold improved activity against B.1.351 over USA-WA1/2020 (CPE EC50) [9]: 4.5 fold | pEC50 [9]: 5.64

CCC(CC)COC(=O)[C@H](C)N[P@](=O)(OC[C@H]1O[C@@](C#N)(c2ccc3c(N)ncnn23)[C@H](O)[C@@H]1O)Oc1ccccc1 [Remdesivir, remdesivir, reference compound]
pEC50 [2]: < 5.00 | % infected, Average ([5]; 0.3 μM): 21.0% | % infected, Average ([5]; 1 μM): 13.5% | % infected, Average ([5]; 3 μM): 8.5% | % infected, Average ([5]; 10 μM): 0.0% | pEC50 [5]: 6.00 | pEC50 [1, 10]: 5.60 | pEC50 [1, 11]: 5.14 to 6.00 | pEC50 [6]: < 5.00 | pEC50 [7]: 5.14 | pEC50 [8]: 5.82 | pEC50 [9]: 5.85

Oc1ccc(/C=C/c2cc(O)cc(O)c2)cc1 [Resveratrol, resveratrol, reference compound]
pEC50 [1, 10]: < 4.00 | pEC50 [7]: < 4.30

OC[C@H]1O[C@@H](Oc2cc3c4c(c2)[C@@H]([C@@H]2c5cc(O)cc6c5[C@@H](c5cc(O)cc(O)c5[C@H]2c2ccc(O)cc2)[C@H](c2ccc(O)cc2)O6)[C@H](c2ccc(O)cc2)c2c(O)cc(O)cc2[C@H]4[C@H](c2ccc(O)cc2)O3)[C@H](O)[C@@H](O)[C@@H]1O [Vatalbinoside A, vatalbinoside A]
pEC50 [2]: 4.95 | % infected, Average ([5]; 1 μM): 17.1% | % infected, Average ([5]; 3 μM): 17.8% | % infected, Average ([5]; 10 μM): 16.7% | % infected, Average ([5]; 30 μM): 9.9% | % infected, Average ([5]; 50 μM): 11.2% | pEC50 [5]: 4.72 | pEC50 [1, 10]: 4.86 | pEC50 [6]: < 4.30 | viability at 20 µM ([6]; Severe acute respiratory syndrome coronavirus 2, read-out: Restored viability in B.1.1.7-infected cells): ≤ 51.2% | pEC50 [7]: 4.73 | pEC50 [8]: 5.40 | pEC50 [9]: 5.44

Oc1ccc([C@@H]2c3c(O)cc(O)cc3[C@@H]3c4c(cc(O)c5c4[C@@H]2[C@H](c2ccc(O)cc2)[C@H]5c2cc(O)cc4c2[C@@H](c2cc(O)cc(O)c2)[C@H](c2ccc(O)cc2)O4)O[C@H]3c2ccc(O)cc2)cc1 [Vaticanol B, vaticanol B]
pEC50 [2]: < 4.30 | % infected, Average ([5]; 10 μM): 30.0% | % infected, Average ([5]; 30 μM): 26.8% | % infected, Average ([5]; 50 μM): 16.9% | pEC50 [5]: < 4.30 | pEC50 [1, 10]: 4.43 | pEC50 [6]: < 4.30 | pEC50 [7]: < 4.30 | pEC50 [8]: 4.49 | pEC50 [9]: 4.60
